Measurements: patent US20260265331A1, “GLYCOSYLATED NEUROPEPTIDE DERIVATIVE INCLUDING NEUROPEPTIDE SEQUENCE AND SUGAR CHAIN, PHARMACEUTICAL COMPOSITION, INTRANASAL/NASAL DROP FORMULATION, AND USE OF GLYCOSYLATED NEUROPEPTIDE DERIVATIVE” (TOKYO UNIVERSITY OF SCIENCE FOUNDATION, priority 2022, published 2026)
Where no end group is shown, it is not given here. The star is where a group is joined. Cam = NC(=O)C*

Tests used:
[1] = Quantification by GLP-2 ELISA of amount of migration to brain; format: in vivo, mice; conditions: 6.0 nmol/mouse intranasal, brain isolated 20 minutes after administration; FIG. 5
Description: Mice were intranasally administered with 16% DMSO or the GLP-2 derivatives (6.0 nmol/mouse). The brain was isolated 20 minutes after the administration, and homogenized with BioMasher II (Nippi, Tokyo, Japan). A sample was prepared by performing centrifugal separation by 1000×g (4° C.) for 15 minutes and collecting a supernatant. The amount of the GLP-2 derivative in the sample was quantified using a GLP-2 ELISA kit. Specifically, a cleaning process including filling each well of a measurement plate with a cleaning fluid (350 μL) and suctioning the cleaning fluid with a pipette was performed three times. […] Finally, an enzyme reaction stop solution (100 μL) was added and an absorbance at 490 nm was measured with ARVO (PerkinElmer Japan Co., Ltd., Kanagawa, Japan) to calculate the concentration of a GLP-2 derivative.
Mice were intranasally administered with the PAS-CPP-GLP-2 derivative prepared in Example 1 (C-terminus 11-sugar, no linker, C11), the PAS-CPP-GLP-2 derivative (N-terminus 11-sugar, no linker, N11), and the PAS-CPP-GLP-2 derivative glycosylated via a C6 alkylene group (N-terminus 11-sugar, with C6 linker, C6), respectively (6.0 nmol/mouse). […] The amount of the GLP-2 derivative in the sample was quantified using a GLP-2 ELISA kit. […]

[2] = Distribution in brain by immunostaining of frozen brain sections (Examples 6 and 7); format: in vivo, mice; conditions: Example 7, 3.0 nmol/mouse intranasal
Description: The brain was isolated 5 minutes after the administration and 20 minutes after the administration, respectively.
(§1) The brain isolated 5 minutes after the intranasal administration was subjected to infiltration fixation with 4% PFA at 4° C. overnight without performing perfusion fixation. The isolation of the brain 20 minutes after the intranasal administration was performed by the following process.
The mouse was fixed in a supine position under anesthesia with isoflurane, and the chest was incised. The tissue was fixed by perfusing with PBS, and subsequently with 4% PFA, from the left chamber of the heart throughout the whole body. The isolated brain was preserved in a 4% PFA solution. On the day following the isolation, the brain samples were substituted with 20% sucrose overnight (4° C.), and further with 30% sucrose overnight (4° C.). Thereafter, a frozen section with a thickness of 30 μm was prepared using a cryostat (CM3050S; Leica Microsystems).
The frozen brain section was mounted on a slide glass, and a circle was drawn around the section with a liquid blocker. A blocking buffer was added inside the circle and the section was subjected to blocking for 30 minutes at room temperature. Thereafter, the section was added with a first antibody solution including a GLP-2 polyclonal antibody, diluted by 200 times with a blocking solution, and subjected to incubation for 1 hour at room temperature. After rinsing three times with 1×PBS, the section was added with a second antibody solution including Alexa Fluor (trademark) 568 Goat Anti-Mouse IgG H&L, diluted by 500 times with a BSA/PBS solution, and subjected to incubation for 1 hour at room temperature. After rinsing three times with 1×PBS, the section was mounted with ProLong (trademark) Diamond Antifade Mountant. After confirming the solidification of the mountant, the section was subjected to fluorescent observation and imaging with a confocal laser microscope (TCS SP8; Leica) and a software (Leica Application Suite X Software; Leica).
Mice were intranasally administered with 16% DMSO or the GLP-2 derivatives (3.0 nmol/mouse), and the brain was isolated 5 minutes, 10 minutes, 20 minutes and 60 minutes after the administration.
as §1, with “isolated 5 minutes or 10 minutes after” for “isolated 5 minutes after”, “20 minutes or 60 minutes after the” for “20 minutes after the”
Sections of the olfactory bulb (OB) including olfactory nerves, pons/principal sensory nucleus of trigeminal nerve (Pr5), hippocampus (HIP) and dorsomedial nucleus of the hypothalamus (DMH) were prepared by referring to the Nissil staining images and the brain map (Paxinos and Franklin, 2003).
The frozen brain section was mounted on a slide glass, and a circle was drawn around the section with a liquid blocker. A blocking buffer was added inside the circle and the section was subjected to blocking for 30 minutes at room temperature. Thereafter, the section was added with a first antibody solution including a GLP-2 polyclonal antibody, diluted by 200 times with a blocking solution, and subjected to incubation for 1 hour at room temperature. […]

amount of GLP-2 derivative in brain (ELISA) [1]: below the detection limit | fluorescence at HIP and DMH ([2]; 20 minutes, FIG. 7B): intense fluorescence was observed | fluorescence at HIP and DMH ([2]; 60 minutes, FIG. 7C): fluorescence was not observed
Substance: FFLIPKGRRRRRRRRGGHADGSFSDEMNTILDNLAARDFINWLIQTKITDC(Cam)-OH [PAS-CPP-GLP-2 derivative (no sugar)]
fluorescence at OB and Pr5 ([2]; 5 minutes, FIG. 7A): a significant degree of fluorescence was observed | fluorescence at OB ([2]; 20 minutes, FIG. 7B): a significant degree of fluorescence was observed at OB | fluorescence intensity at OB or Pr5 relative to 5 minutes ([2]; 20 minutes, FIG. 7B): weaker than the fluorescence observed 5 minutes after the administration
